From patent publication US12216119B2, “IGF-1 analysis, adjustment and disease management of non-neurological and/or neurological conditions” (THE CGP LAB LIMITED, priority 2017, dated 2025)

Tests used:
[1] = Vitamin C added to BCA: efficacy of BCA to increase cGP levels; details: added to BCA as ascorbic acid
[2] = tested on: rats with ischemic brain injury; details: cited from earlier work
[3] = tested on: hypertensive rats; details: cited from earlier work

Question: With `O=C1O[C@H]([C@@H](O)CO)C(O)=C1O` [Vitamin C, ascorbic acid] as the compound, how does the “effect on the efficacy of BCA to increase the levels of cGP” value [1] read?
Answer: Its value is “negative effect”.

Question: With `O=C1NCC(=O)N2CCC[C@@H]12` [cGP, cyclic glycine-proline] as the compound, how does the ischemic brain injury [2] read?
Answer: Its ischemic brain injury is “prevents ischemic brain injury”.

Question: And the systemic blood pressure [3]?
Answer: The systemic blood pressure was “normalises the systemic blood pressure”.
